Literature values in publication PMC10720383, “Acetylcholinesterase Inhibition in Rats and Humans Following Acute Fenitrothion Exposure Predicted by Physiologically Based Kinetic Modeling-Facilitated Quantitative In Vitro to In Vivo Extrapolation” (Environmental Science & Technology, 2023).
Like-named read-outs stand apart in the source and are kept apart here.

What was measured:
[1] = not clear if experimental or in silico, cited from earlier work
[2] = assumed default for neutral and acidic compounds, no experimental data; cited from earlier work
[3] = humans; diazinon constant used for FNT; cited from earlier work
[4] = rats; diazinon constant used for FNT; cited from earlier work

SMILES	LogP, reported data ([1]; ref OECD 1994)	pKa, reported data ([1]; ref Shahpoury et al. 2018)	blood plasma ratio (BPr) [2]	absorption rate constant from intestine to liver (kaI) [3]	absorption rate constant from stomach to liver (kaS) [3]	transfer rate constant from stomach to intestine (ksI) [3]	absorption rate constant from intestine to liver (kaI) [4]	absorption rate constant from stomach to liver (kaS) [4]	transfer rate constant from stomach to intestine (ksI) [4]
Cc1cc(O)ccc1[N+](=O)[O-] [MNP, 3-methyl-4-nitrophenol]	2.12	7.33	0.55	–	–	–	–	–	–
CCOP(=S)(OCC)Oc1cc(C)nc(C(C)C)n1 [diazinon]	–	–	–	0.59 h⁻¹	0.32 h⁻¹	0.48 h⁻¹	0.59 h⁻¹	0.1 h⁻¹	0.48 h⁻¹
